In brackets after ≈: the same amount, converted by molar mass.
Experiments:
[1] = Intrinsic clearance in mouse liver microsomes; format: in vitro ADME; conditions: mouse liver microsomal intrinsic clearance
Method: 2.2 Intrinsic clearance: This assay was conducted as previously described in [5].

[2] = Aqueous (kinetic) solubility by CAD; format: physicochemical; conditions: kinetic solubility measured by CAD
Method: 2.1 Aqueous solubility: This assay was conducted as previously described in [4].

[3] = ChromLogD pH7.4 (chromatographic hydrophobicity index); format: physicochemical; conditions: pH 7.4; CHIpH7.4 × 0.0857–2; read-out: ChromlogDpH7.4
intracellular T. cruzi = system: intracellular T. cruzi; design: method as in PMID 25740547; conditions: HTS in NIH-3T3 fibroblasts; cited from earlier work
[4] = system: intracellular T. cruzi X10/7 A1 amastigotes; assay: Intracellular T. cruzi assay; format: cell-based, Trypanosoma cruzi; conditions: Trypanosoma cruzi; potency against intracellular T. cruzi amastigotes; at least three independent replicates, standard deviations ≤0.2; read-out: T. cruzi (pEC50) (converted)
Method: 1.1 Intracellular T. cruzi assay: Potency against intracellular T. cruzi X10/7 A1 amastigotes was determined as described previously with as sole modification that the compound treatment duration was increased from 72h to 96h.

[5] = system: T. cruzi infected Vero cells; assay: Washout assay; format: cell-based, Trypanosoma cruzi; conditions: for Relapse Day: 8 days treatment
Method: (§1) (Supplementary Information, Fig. S1). We tested 1 in a T. cruzi washout assay to assess the compound's ability to clear all parasites in vitro. In this experiment, T. cruzi, cultured in Vero cells were treated with compound 1 at 20- to 30-fold the EC50 for 8 days (with compound being re-supplemented after 4 days). After treatment, the culture medium containing compound 1 was removed, the cell monolayer was washed extensively and then incubated with fresh medium containing no compound 1. […] The same result was obtained in three independent experiments (Supplementary Information, Table S1). […] We therefore ran a 4-day PK study on 1, dosing at 50 mg/kg twice daily. As the intrinsic clearance was very high, compound 1 was co-dosed with 1-ABT (1-aminobenzotriazole) to inhibit CYP-mediated degradation and maximise exposure. […] As this was a novel series with an unknown mechanism of action, the PKPD drivers were unknown, so this coverage was considered suitable for progression to an animal model of Chagas disease. Compound 1 was dosed twice daily at 50 mg/kg for 5 days in an acute Chagas disease mouse efficacy study. This mouse model, developed by the Kelly laboratory, is able to distinguish between benznidazole (clinically effective) and posaconazole (clinically ineffective).
1.2 Washout assay: Vero cells were infected overnight at MOI 5 with T. cruzi X10/7 A1 trypomastigotes in MEM media (Gibco) containing 10% FCS (Hyclone) followed by washing of the monolayer to remove any extracellular trypomastigotes. 24 h later, infected cells were trypsinised and plated in T25 flasks in presence of compounds at the indicated concentrations and incubated for 8 days in MEM media (Gibco) containing 1% FCS. Four days into the treatment the media was replaced with fresh compound-containing media. After the treatment period, monolayers were washed extensively. The cultures were then maintained, replacing media twice weekly, until trypomastigotes could be observed by light microscopy. Observations were carried out twice weekly for up to 60 days post washout.
Results for three independent washout experiments (experiment c is reported in the main manuscript). T. cruzi infected Vero cells were treated for 8 days at the indicated concentrations (compounds replenished after 4 days), followed by extensive washing to remove compounds and incubation until parasites were observed microscopically. ^a day after washout of compounds on which egressed parasites were detected first.

T. cruzi CYP51 = T. cruzi CYP51 (Trypanosoma cruzi, UniProt Q7Z1V1); assay: CYP51 assay; format: biochemical; conditions: read-out: T.cruzi CYP51 (pIC50) (converted)
Chain of T. cruzi CYP51 (Q7Z1V1 whole entry): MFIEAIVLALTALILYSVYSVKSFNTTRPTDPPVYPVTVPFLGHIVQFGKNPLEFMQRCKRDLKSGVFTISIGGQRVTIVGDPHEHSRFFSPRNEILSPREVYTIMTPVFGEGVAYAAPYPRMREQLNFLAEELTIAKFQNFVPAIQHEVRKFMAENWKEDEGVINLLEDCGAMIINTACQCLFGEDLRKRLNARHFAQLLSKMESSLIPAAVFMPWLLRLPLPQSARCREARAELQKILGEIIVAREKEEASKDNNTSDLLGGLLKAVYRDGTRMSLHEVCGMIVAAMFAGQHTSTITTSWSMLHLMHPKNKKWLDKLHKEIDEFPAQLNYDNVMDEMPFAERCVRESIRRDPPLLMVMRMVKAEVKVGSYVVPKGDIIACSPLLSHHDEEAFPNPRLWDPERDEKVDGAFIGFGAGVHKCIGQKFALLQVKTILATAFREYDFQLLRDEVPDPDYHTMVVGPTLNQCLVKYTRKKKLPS
Method: 1.4 CYP51 assay: Potency against T. cruzi CYP51 was determined as previously described in [3].

[6] = system: intracellular T. cruzi X10/7-E2Crimson; assay: Rate-of-kill studies; format: cell-based, Trypanosoma cruzi; conditions: compared with posaconazole (CYP51 inhibitor)
Method: 1.3 Rate-of-kill studies: Experiments with intracellular T. cruzi X10/7-E2Crimson were carried out as previously described in [2].

T. cruzi = assay: Acute Chagas disease mouse efficacy study (bioluminescence imaging); format: in vivo, Trypanosoma cruzi
Method: as §1, with “Compound 1 was dosed twice daily at 50 mg/kg for 5 days in an acute Chagas disease mouse efficacy study. This mouse model, developed by the Kelly laboratory, is able to distinguish between benznidazole (clinically effective) and posaconazole (clinically ineffective).” left out
Fig. 2 Results of acute T. cruzi infection efficacy study. […] 5 day dosing begins on day 14 (b) Quantification (Total Flux [p/s]) of combined ventral and dorsal bioluminescence for the mice shown in (c). […] (For interpretation of the references to colour in this figure legend, the reader is referred to the Web version of this article.) […]

[7] = Blood exposure in the acute efficacy study; format: in vivo, mouse; conditions: days 1 and 5; 50 mg/kg b.i.d. with 1-ABT
Method: as §1, with “Compound 1 was dosed twice daily at 50 mg/kg for 5 days in an acute Chagas disease mouse efficacy study. This mouse model, developed by the Kelly laboratory, is able to distinguish between benznidazole (clinically effective) and posaconazole (clinically ineffective).” left out
Fig. 2 Results of acute T. cruzi infection efficacy study. […] 5 day dosing begins on day 14 (b) Quantification (Total Flux [p/s]) of combined ventral and dorsal bioluminescence for the mice shown in (c). […] (For interpretation of the references to colour in this figure legend, the reader is referred to the Web version of this article.)

Structure (SMILES) | Mouse CLi [1] [mL/min/g] | solubility [2] [µM] | chromatographic logD [3] | T. cruzi pEC50 (reported potency) (intracellular T. cruzi) | EC50 [4] [µM] | Time after washout until parasite relapse was observed ([5]; 20- to 30-fold the EC50 for 8 days, re-supplemented after 4 days) [weeks] | Relapse Day ([5]; experiment a, 5 µM, 32-fold EC50) [days] | Relapse Day ([5]; experiment b, 5.5 µM, 35-fold EC50) [days] | Relapse Day ([5]; experiment c, 3.9 μM, 25-fold EC50, day after washout on which egressed parasites first detected) [days] | IC50 (T. cruzi CYP51) [µM] | Rate-of-kill profile [6] | Outcome after immunosuppression (T. cruzi; 50 mg/kg b.i.d. for 5 days with 1-ABT, cyclophosphamide 200 mg/kg i.p. days 28, 32, 36) | Parasite burden (T. cruzi; 50 mg/kg b.i.d. for 5 days, 1-ABT 50 mg/kg pre-treatment, compared to vehicle) | Total blood exposure relative to in vitro EC99 [7] | Relapse Day ([5]; experiment a, replicate 1, 36 µM, 12.5-fold EC50) [days] | Relapse Day ([5]; experiment a, replicate 2, 36 µM, 12.5-fold EC50) [days] | Relapse Day ([5]; experiment b, 36 µM, 12.5-fold EC50) [days] | Relapse Day ([5]; experiment c, 36 μM, 12.5-fold EC50) [days] | Relapse Day ([5]; experiment c, 144 μM, 50-fold EC50, observed up to 60 days) [days]
Cc1ccc(S(=O)(=O)Nc2ccc(CN3CCN(C(=O)c4cccc(C#N)c4)CC3)cc2)cc1 [TCMDC-143497] | 30 | 85 (≈ 40.3 µg/mL) | 4.8 | 6.4 | – | – | – | – | – | – | – | – | – | – | – | – | – | – | –
Cc1ccc(S(=O)(=O)Nc2ccc(CN3CCN(C(=O)c4cccc(Cl)c4)CC3)cc2)cc1 [Compound 1, N-(4-((4-(3-chlorobenzoyl)piperazin-1-yl)methyl)phenyl)-4-methylbenzenesulfonamide] | >50 | 38 (≈ 18.4 µg/mL) | 5.8 | – | 0.158 | ~2 | 11 | 14 | 11 | 20 | faster kill profile | relapse is observed post immunosuppression | reduction in parasite burden compared to vehicle | exceeded the in vitro EC99 for the duration of dosing | – | – | – | – | –
O=C(Cn1ccnc1[N+](=O)[O-])NCc1ccccc1 [benznidazole] | – | – | – | – | – | – | – | – | – | – | – | – | – | – | 18 | 14 | 14 | 18 | >60

Reference: publication PMC11458808, “Identification and development of a series of disubstituted piperazines for the treatment of Chagas disease” (European Journal of Medicinal Chemistry, 2022)
